Measurements taken from ChEMBL document CHEMBL2311530, “The development of potential new fluorine-18 labelled radiotracers for imaging the GABA(A) receptor” (Bioorg Med Chem Lett, 2013).

What was measured:
[1] = Displacement of […]FMZ from Wistar rat cerebellum GABAA receptor by competitive radioligand assay; type: tissue-based
[2] = Lipophilicity, log D of the compound in n-octanol at pH 7.4 by shake flask method; type: physicochemical

Row | SMILES | Ki [1] | logD [2]
1 | CN1Cc2c(C(=O)OC(C)(C)C)ncn2-c2nccc(F)c2C1=O | 1.3 nM | 
2 | CN1Cc2c(C(=O)OC(C)(C)C)ncn2-c2ccnc(F)c2C1=O | 3.9 nM | 
3 | CCOC(=O)c1ncn2c1CN(C)C(=O)c1nc(F)ccc1-2 | 14 nM | 
4 | CCOC(=O)c1ncn2c1[C@@H]1CCCN1C(=O)c1cc(F)ccc1-2 | 2.3 nM | 1.85
5 | O=C(NCCCF)c1ncn2c1[C@@H]1CCCN1C(=O)c1c(Br)cccc1-2 | > 10000 nM | 
6 | O=C(OCCCF)c1ncn2c1[C@@H]1CCCN1C(=O)c1c(Br)cccc1-2 | 3.2 nM | 
7 | O=C(NCCF)c1ncn2c1[C@@H]1CCCN1C(=O)c1c(Br)cccc1-2 | > 10000 nM | 
8 | O=C(OCCF)c1ncn2c1[C@@H]1CCCN1C(=O)c1c(Br)cccc1-2 | 9.4 nM | 
9 | CN1Cc2c(C(=O)OC(C)(C)C)ncn2-c2cccc(OCCF)c2C1=O | 1.1 nM | 
10 | CN1Cc2c(C(=O)OC(C)(C)C)ncn2-c2ccc(OCCF)cc2C1=O | 0.52 nM | 1.17
11 | CCOC(=O)c1ncn2c1CN(C)C(=O)c1cc(OCCF)ccc1-2 | 2.3 nM | 1.62
12 | CC(C)OC(=O)c1ncn2c1CN(C)C(=O)c1c(F)cccc1-2 | 0.42 nM | 
13 | CN1Cc2c(C(=O)OC(C)(C)C)ncn2-c2cccc(F)c2C1=O | 0.76 nM | 0.69
14 | CC(C)(C)OC(=O)c1ncn2c1CN(CCF)C(=O)c1cc(F)ccc1-2 | 8.9 nM | 
15 | CCOC(=O)c1ncn2c1CN(CCF)C(=O)c1cc(F)ccc1-2 | 13.5 nM | 1.54
16 | CN1Cc2c(C(=O)OC(C)(C)C)ncn2-c2ccc(F)cc2C1=O | 1.9 nM | 
17 | CCOC(=O)c1ncn2c1CN(CC)C(=O)c1cc(F)ccc1-2 | 10.7 nM | 1.65
18 | CCOC(=O)c1ncn2c1CN(Cc1ccccc1)C(=O)c1cc(F)ccc1-2 | 2.9 nM | 1.44
19 | CN1Cc2c(C(=O)OCCCF)ncn2-c2ccc(F)cc2C1=O | > 10000 nM | 0.68
20 | CN1Cc2c(C(=O)NCCF)ncn2-c2ccc(F)cc2C1=O | > 10000 nM | 
21 | CN1Cc2c(C(=O)NCCCF)ncn2-c2ccc(F)cc2C1=O | > 10000 nM | 
22 | CN1Cc2c(C(=O)OCCF)ncn2-c2ccc(F)cc2C1=O | 4 nM | 1.12
23 | CCOC(=O)c1ncn2c1CN(C)C(=O)c1c(F)cccc1-2 | 5.5 nM | 1.25
24 | CC(C)(C)OC(=O)c1ncn2c1[C@@H]1CCCN1C(=O)c1c(Br)cccc1-2 [BRETAZENIL] | 0.3 nM | 
25 | CCOC(=O)c1ncn2c1CN(C)C(=O)c1cc(F)ccc1-2 [FLUMAZENIL] | 1.3 nM | 1.58
